Where two headings read alike, the source gives them in different places. Marks after values point to notes of the source that are not given here.
How the values were obtained:
leukocytes = tested on: leukocytes
Method: (§1) Control animals were dosed with vehicle only.
The Leukocyte Depletion Signature was derived by analysis of a subset of data from about 2000 in vivo rat drug treatments (using about 300 individual drugs) representing multiple tissues; the method for creation of this dataset is described in the general methods section.

[1] = tested on: Leukocyte Depletion Signature; assay: Signature Projection Score against the Leukocyte Depletion Signature, bone marrow gene expression data; conditions: maximum over treatments, normalized so highest training treatment = 100, * = p < 0.01, ** = p < 0.001
From the text: Using only the genes in the signature, the amount and direction of gene expression changes in an experimental sample are compared (in terms of log ratio of expression signals) against a reference gene expression change (computed as the average over a characterizing set of treatments in our database). The sum over genes of the product of these two differences is computed, and normalized such that the highest score of any of the characterizing treatments when calculated in this way is 100.
After determination of the MTD and FED for a compound, each compound was dissolved in a vehicle for administration on day 1 of the study (additional daily doses were stored as frozen aliquots from this initial formulation). Each compound was administered to three individual male Sprague-Dawley rats for each of the two doses (MTD and FED) for one of four different times (0.25 day, 1 day, 3 days, and 5 days), yielding a total of up to 24 animals per compound study. Vehicle choice was based on solubility of the compound, effect of food on adsorption, and the vehicles used in the literature reports examined during the FED selection investigations, described above. Generally, the route and vehicle in which the FED was defined are used. When there was a choice of routes and vehicles, oral routes were chosen over injection routes. Many compounds, especially oncolytics, are only administrable intravenously. In such cases, the compound was administered as an intravenous formulation into the tail vein. Orally administered compounds were given dissolved in either water, 1% carboxymethycellulose (CMC) or corn oil. Intravenously and intraperitoneally administered compounds were given in 0.9% saline. Subcutaneously administered compounds were given in corn oil. Animal body weights were determined at 1 day and, where appropriate, at 4 days, before necropsy, and clinical observations were made on a daily basis. Control animals were dosed with vehicle only. Three male animals were used for each dose and time combination used for the compound treatment.
Tissue harvest and handling: After the allocated treatment time, the tissues from the animals were harvested. […] All the tissues collected were divided to provide samples for histopathological analyses, and the remainder of each tissue was then snap-frozen. […] Preparation of enriched mRNA: Punch biopsies were taken from the frozen tissues and were completely homogenized before being processed using the MagNA Pure robot. (Roche Diagnostics Corp., Indianapolis, Ind.) in combination with the MagNA Pure LC RNA Isolation kit II (Roche Diagnostics Corp). The amount of lysis buffer was adjusted to allow 1 ml per 50 mg for liver tissue, or 1 ml per 80 mg for all other tissues.

[2] = tested on: Leukocyte Depletion Signature; assay: Signature Projection Score against the Leukocyte Depletion Signature, spleen gene expression data; format: in vivo, rat; conditions: maximum over treatments, normalized so highest training treatment = 100, * = p < 0.01, ** = p < 0.001
Method: as §1

[3] = time point 5 days, average of 3 animals, * = p < 0.01

SMILES | Max Fold Serum Leukocyte Depletion (leukocytes; maximum over treatments) | Max Bone Marrow Score (Signature Projection Score) [1] | Max Spleen Score (Signature Projection Score) [2] | Max Fold Serum Leukocyte Depletion (leukocytes; rat, in vivo) | Fold Decrease in leukocytes (leukocytes; [3]) | Fold Decrease in leukocytes (leukocytes; rat, in vivo)
S=C=Nc1cccc2ccccc12 [1-NAPHTHYL ISOTHIOCYANATE] | 0 fold | 0 | – | – | – | –
CN(C)c1nc(N(C)C)nc(N(C)C)n1 [ALTRETAMINE] | – | 3 | 5 | 0 fold | – | –
Cn1cnc([N+](=O)[O-])c1Sc1ncnc2nc[nH]c12 [AZATHIOPRINE] | – | 11 | 19 | 0 fold | – | –
CC(C)(c1ccc(O)cc1)c1ccc(O)cc1 [BISPHENOL A] | – | 0 | 3 | 0 fold | – | –
Oc1c(Cl)cc(Cl)cc1Sc1cc(Cl)cc(Cl)c1O [BITHIONOL] | – | 4 | 2 | 0 fold | – | –
CS(=O)(=O)OCCCCOS(C)(=O)=O [BUSULFAN] | – | 19 | 32* | 0 fold | – | –
ClC(Cl)(Cl)Cl [CARBON TETRACHLORIDE] | 0 fold | 2 | – | – | – | –
N.N.O=C([O-])C1(C(=O)[O-])CCC1.[Pt+2] [CARBOPLATIN] | 0 fold | 2 | 8 | – | – | –
O=NN(CCCl)C(=O)NCCCl [CARMUSTINE] | 4.49 fold | 39* | 31* | – | 4.49* fold | –
O=C(O)CCCc1ccc(N(CCCl)CCCl)cc1 [CHLORAMBUCIL] | 7.08 fold | 9 | 65* | – | 7.08* fold | –
N.N.[Cl][Pt][Cl] [CISPLATIN] | 2.01 fold | 7 | 25* | – | – | –
Nc1ccn([C@@H]2O[C@H](CO)[C@@H](O)[C@@H]2O)c(=O)n1 [CYTARABINE] | – | 2 | 15 | 2.85 fold | – | –
COc1cccc2c1C(=O)c1c(O)c3c(c(O)c1C2=O)C[C@@](O)(C(C)=O)C[C@@H]3O[C@H]1C[C@H](N)[C@H](O)[C@H](C)O1 [DAUNORUBICIN] | 2.77 fold | 54* | – | – | – | –
CC/C(=C(/CC)c1ccc(O)cc1)c1ccc(O)cc1 [DIETHYLSTILBESTROL] | – | 2 | 30* | – | – | –
C[C@H]1O[C@@H](n2cc(F)c(=O)[nH]c2=O)[C@H](O)[C@@H]1O [DOXIFLURIDINE] | – | 56* | – | 0 fold | – | –
COc1cccc2c1C(=O)c1c(O)c3c(c(O)c1C2=O)C[C@@](O)(C(=O)CO)C[C@@H]3O[C@H]1C[C@H](N)[C@H](O)[C@H](C)O1 [DOXORUBICIN] | – | 41* | 75** | 4.70 fold | – | –

SMILES | Max Fold Serum Leukocyte Depletion (leukocytes; maximum over treatments) | Max Bone Marrow Score (Signature Projection Score) [1] | Max Spleen Score (Signature Projection Score) [2] | Max Fold Serum Leukocyte Depletion (leukocytes; rat, in vivo) | Fold Decrease in leukocytes (leukocytes; [3]) | Fold Decrease in leukocytes (leukocytes; rat, in vivo)
CCO [ETHANOL] | – | 2 | – | 0 fold | – | –
COc1cc([C@@H]2c3cc4c(cc3[C@@H](O[C@@H]3O[C@@H]5CO[C@@H](C)O[C@H]5[C@H](O)[C@H]3O)[C@H]3COC(=O)[C@H]23)OCO4)cc(OC)c1O [ETOPOSIDE] | – | 43* | 47* | 2.04 fold | – | –
NC(=O)NO [HYDROXYUREA] | – | 13 | 15 | 2.92 fold | – | –
O=P1(NCCCl)OCCCN1CCCl (stereo not drawn) [IFOSFAMIDE] | – | 79** | 11 | – | – | –
Cc1oncc1C(=O)Nc1ccc(C(F)(F)F)cc1 [LEFLUNOMIDE] | – | 7 | 34* | 2.89 fold | – | –
O=NN(CCCl)C(=O)NC1CCCCC1 [LOMUSTINE] | 0 fold | 3 | 23* | – | – | –
CN(Cc1cnc2nc(N)nc(N)c2n1)c1ccc(C(=O)N[C@@H](CCC(=O)O)C(=O)O)cc1 [METHOTREXATE] | – | 6 | 75** | 4.35 fold | – | 4.35* fold
CO[C@@]12[C@H](COC(N)=O)C3=C(C(=O)C(C)=C(N)C3=O)N1C[C@@H]1N[C@@H]12 [MITOMYCIN C] | 3.53 fold | 7 | 57* | – | 3.53* fold | –
COc1c(C)c2c(c(O)c1C/C=C(\C)CCC(=O)OCCN1CCOCC1)C(=O)OC2 [MYCOPHENOLATE MOFETIL] | – | 9 | – | – | – | –
CN(C)C=O [N,N-DIMETHYLFORMAMIDE] | – | 0 | 3 | – | – | –
CCN(CC)N=O [N-NITROSODIETHYLAMINE] | – | 7 | 0 | – | – | –
O=C1[O][Pt]2([NH][C@@H]3CCCC[C@H]3[NH]2)[O]C1=O [OXALIPLATIN] | 2.18 fold | 14 | – | – | – | –
Nc1nc2nc[nH]c2c(=S)[nH]1 [THIOGUANINE] | – | 24* | 100** | 3.63 fold | – | 3.63* fold
CC[C@]1(O)C[C@@H]2CN(CCc3c([nH]c4ccccc34)[C@@](C(=O)OC)(c3cc4c(cc3OC)N(C)[C@H]3[C@@](O)(C(=O)OC)[C@H](OC(C)=O)[C@]5(CC)C=CCN6CC[C@]43[C@@H]65)C2)C1 [VINBLASTINE] | – | 11 | – | – | – | –
CC[C@]1(O)C[C@H]2CN(CCc3c([nH]c4ccccc34)[C@@](C(=O)OC)(c3cc4c(cc3OC)N(C=O)[C@H]3[C@@](O)(C(=O)OC)[C@H](OC(C)=O)[C@]5(CC)C=CCN6CC[C@]43[C@@H]65)C2)C1 [VINCRISTINE] | – | 5 | – | – | – | –
CCC1=C[C@@H]2CN(C1)Cc1c([nH]c3ccccc13)[C@@](C(=O)OC)(c1cc3c(cc1OC)N(C)[C@H]1[C@@](O)(C(=O)OC)[C@H](OC(C)=O)[C@]4(CC)C=CCN5CC[C@]31[C@@H]54)C2 [VINORELBINE] | – | 44* | – | 1.93 fold | – | –

From patent publication US7519519B1, “Signature projection score” (Entelos, Inc., priority 2002, dated 2009)
